Measurements taken from ChEMBL document CHEMBL1147598, “1-(2-Naphthyl)-1H-pyrazole-5-carboxylamides as potent factor Xa inhibitors. Part 3: Design, synthesis and SAR of orally bioavailable benzamidine-P4 inhibitors” (Bioorg Med Chem Lett, 2004).

Experiments:
Coagulation factor X [1] = molecular target: T1, Coagulation factor X (Homo sapiens, UniProt P00742); assay: In vitro inhibitory activity against human coagulation factor X
[2] = In vitro anticoagulant potency measured in human plasma by thrombin generation (TG) assay expressed as 2 x TG; format: functional
Coagulation factor X [3] = molecular target: T1, Coagulation factor X; assay: Binding affinity for human Coagulation factor X
[4] = Bioavailability in rat; format: ADME, organism-based; conditions: in vivo
[5] = (§1) Volume of distribution in rat; format: ADME, organism-based; conditions: in vivo
[6] = (§2) Half-life determined in rat; format: ADME, organism-based; conditions: in vivo
[7] = (§3) Clearance rate in rat; format: ADME, organism-based; conditions: in vivo
[8] = molecular target: Vitamin K-dependent protein C (Homo sapiens, UniProt P04070); assay: Inhibitory activity against activated protein C was determined
[9] = molecular target: Tissue-type plasminogen activator (Homo sapiens, UniProt P00750); assay: Inhibitory activity of compound against tissue type plasminogen activator
[10] = molecular target: Plasminogen (Homo sapiens) (UniProt P00747); assay: Inhibitory activity of compound against plasmin
Prothrombin = Prothrombin (Homo sapiens, UniProt P00734); assay: Inhibitory activity of compound against thrombin
Oryctolagus cuniculus [11] = assay: In vivo inhibition of thrombus accretion at a plasma level of 3.7 […] in the rabbit deep vein thrombosis (DVT) model; format: functional
Kallikrein-1 = Kallikrein-1 (Homo sapiens, UniProt P06870); assay: Inhibitory activity of compound against kallikrein
Serine protease 1 = Serine protease 1 (Homo sapiens, UniProt P07477); assay: Inhibitory activity of compound against trypsin
Oryctolagus cuniculus [12] = assay: In vivo inhibition of thrombus accretion at a plasma level of 4.5 […] in the rabbit deep vein thrombosis (DVT) model; format: functional
Oryctolagus cuniculus [13] = assay: In vivo inhibition of thrombus accretion at a plasma level of 3.9 […] in the rabbit deep vein thrombosis (DVT) model; format: functional
Oryctolagus cuniculus [14] = assay: In vivo inhibition of thrombus accretion at a plasma level of 4.6 […] in the rabbit deep vein thrombosis (DVT) model; format: functional
Rattus norvegicus [15] = species: Rattus norvegicus; assay: as §1; format: ADME, organism-based; conditions: in vivo
Rattus norvegicus [16] = species: Rattus norvegicus; assay: as §2; format: ADME, organism-based; conditions: in vivo
Rattus norvegicus [17] = species: Rattus norvegicus; assay: as §3; format: ADME, organism-based; conditions: in vivo

Kallikrein-1, sequence (P06870 whole entry): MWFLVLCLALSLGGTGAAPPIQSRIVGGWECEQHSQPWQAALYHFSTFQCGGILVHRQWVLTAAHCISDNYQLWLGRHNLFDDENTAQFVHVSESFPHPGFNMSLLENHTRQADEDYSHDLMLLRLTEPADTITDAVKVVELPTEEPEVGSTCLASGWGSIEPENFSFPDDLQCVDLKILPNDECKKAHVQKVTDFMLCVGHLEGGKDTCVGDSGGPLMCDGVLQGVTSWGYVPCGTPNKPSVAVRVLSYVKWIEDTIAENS
Tissue-type plasminogen activator, sequence (P00750 whole entry): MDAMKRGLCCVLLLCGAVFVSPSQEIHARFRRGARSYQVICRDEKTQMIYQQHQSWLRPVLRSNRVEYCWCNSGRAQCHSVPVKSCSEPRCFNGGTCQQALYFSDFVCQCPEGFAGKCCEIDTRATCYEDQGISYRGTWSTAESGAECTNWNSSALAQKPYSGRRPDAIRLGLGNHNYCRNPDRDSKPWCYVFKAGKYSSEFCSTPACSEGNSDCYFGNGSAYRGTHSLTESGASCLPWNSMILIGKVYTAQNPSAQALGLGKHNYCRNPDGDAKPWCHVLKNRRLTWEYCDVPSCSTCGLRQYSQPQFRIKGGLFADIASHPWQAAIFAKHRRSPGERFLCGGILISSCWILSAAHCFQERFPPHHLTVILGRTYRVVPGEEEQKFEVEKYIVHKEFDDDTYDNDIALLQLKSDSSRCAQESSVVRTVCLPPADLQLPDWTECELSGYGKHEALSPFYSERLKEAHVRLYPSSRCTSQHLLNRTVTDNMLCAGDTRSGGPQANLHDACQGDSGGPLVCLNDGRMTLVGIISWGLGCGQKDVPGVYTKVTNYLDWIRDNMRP
T1 sequence (P00742 41-179 limits assumed): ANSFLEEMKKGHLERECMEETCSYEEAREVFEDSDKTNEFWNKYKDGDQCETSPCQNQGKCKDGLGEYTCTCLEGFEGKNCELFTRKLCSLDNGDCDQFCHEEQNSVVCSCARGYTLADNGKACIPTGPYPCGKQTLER
T1 sequence (P00742 235-488 limits assumed): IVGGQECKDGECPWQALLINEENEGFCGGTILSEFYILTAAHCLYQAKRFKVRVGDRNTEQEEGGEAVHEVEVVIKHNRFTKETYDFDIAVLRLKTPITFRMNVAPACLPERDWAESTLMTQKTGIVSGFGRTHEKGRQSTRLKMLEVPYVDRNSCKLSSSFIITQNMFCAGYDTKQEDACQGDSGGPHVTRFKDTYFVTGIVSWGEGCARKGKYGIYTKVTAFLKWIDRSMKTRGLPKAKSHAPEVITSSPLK
Vitamin K-dependent protein C, sequence (P04070 43-197 limits assumed): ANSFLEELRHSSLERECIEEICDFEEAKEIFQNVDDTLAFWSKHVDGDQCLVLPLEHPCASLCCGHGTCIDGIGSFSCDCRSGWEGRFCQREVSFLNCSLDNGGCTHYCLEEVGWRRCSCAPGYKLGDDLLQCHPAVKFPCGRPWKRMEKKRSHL
Vitamin K-dependent protein C, sequence (P04070 212-461 limits assumed): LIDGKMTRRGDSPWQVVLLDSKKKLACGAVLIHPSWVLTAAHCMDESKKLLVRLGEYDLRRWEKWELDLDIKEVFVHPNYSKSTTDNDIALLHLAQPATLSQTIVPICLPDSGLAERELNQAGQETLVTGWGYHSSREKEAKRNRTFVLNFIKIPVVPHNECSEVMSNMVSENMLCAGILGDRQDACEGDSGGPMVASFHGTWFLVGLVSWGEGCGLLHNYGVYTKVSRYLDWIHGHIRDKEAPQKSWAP
Serine protease 1, sequence (P07477 whole entry): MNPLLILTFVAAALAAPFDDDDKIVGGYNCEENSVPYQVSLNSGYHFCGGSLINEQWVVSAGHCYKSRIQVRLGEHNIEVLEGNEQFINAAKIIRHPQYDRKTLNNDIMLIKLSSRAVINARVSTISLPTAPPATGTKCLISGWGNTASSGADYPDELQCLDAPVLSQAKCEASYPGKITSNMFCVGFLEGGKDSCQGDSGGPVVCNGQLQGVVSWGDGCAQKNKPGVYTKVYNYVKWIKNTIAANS
Plasminogen (Homo sapiens), sequence (P00747 whole entry, looked up): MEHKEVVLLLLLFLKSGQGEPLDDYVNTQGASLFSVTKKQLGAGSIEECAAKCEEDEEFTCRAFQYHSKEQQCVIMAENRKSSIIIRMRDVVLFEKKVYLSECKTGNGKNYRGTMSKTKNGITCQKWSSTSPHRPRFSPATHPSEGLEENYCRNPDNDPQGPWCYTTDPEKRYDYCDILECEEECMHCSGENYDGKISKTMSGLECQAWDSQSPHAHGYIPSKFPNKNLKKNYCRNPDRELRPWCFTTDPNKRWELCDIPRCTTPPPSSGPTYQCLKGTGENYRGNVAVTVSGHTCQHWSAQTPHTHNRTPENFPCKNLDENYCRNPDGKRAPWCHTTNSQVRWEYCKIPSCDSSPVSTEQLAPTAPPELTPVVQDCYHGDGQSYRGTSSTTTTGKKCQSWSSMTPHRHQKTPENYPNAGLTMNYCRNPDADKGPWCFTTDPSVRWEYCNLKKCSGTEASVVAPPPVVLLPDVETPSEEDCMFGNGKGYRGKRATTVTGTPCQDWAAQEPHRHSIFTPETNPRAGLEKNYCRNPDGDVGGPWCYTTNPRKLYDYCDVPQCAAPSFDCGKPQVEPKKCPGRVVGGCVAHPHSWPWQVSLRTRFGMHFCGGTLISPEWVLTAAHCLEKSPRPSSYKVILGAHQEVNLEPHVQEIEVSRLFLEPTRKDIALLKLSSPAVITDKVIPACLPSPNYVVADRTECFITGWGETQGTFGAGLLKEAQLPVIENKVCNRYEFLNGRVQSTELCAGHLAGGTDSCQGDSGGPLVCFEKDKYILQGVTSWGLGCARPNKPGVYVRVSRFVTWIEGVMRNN

Row | SMILES | IC50 (Coagulation factor X [1]) | Activity [2] | further results
1 | N=C(c1ccc(NC(=O)c2nnnn2-c2cc3ccccc3cc2F)c(F)c1)N1CCCCC1 | 76 nM | – | –
2 | Cc1cc(C(=O)Nc2ccc(C(=N)N(C)C)cc2F)n(-c2cc3ccccc3cc2S(C)(=O)=O)n1 | 12 nM | 0.53 µM | Ki (Coagulation factor X [3]): 2.8 nM
3 | CCCN(C)C(=N)c1ccc(NC(=O)c2cc(C)nn2-c2cc3ccccc3cc2F)c(F)c1 | 34 nM | – | –
4 | Cc1cc(C(=O)Nc2ccc(C(=N)N3CCCC3)cc2F)n(-c2cc3ccccc3cc2F)n1 | 6 nM | 1.4 µM | Ki (Coagulation factor X [3]): 4.1 nM
5 | N=C(c1ccc(NC(=O)c2cc(C(F)(F)F)nn2-c2ccc3cc(Cl)ccc3c2)c(F)c1)N1CCCC1 | 2 nM | – | –
6 | Cc1cc(C(=O)Nc2ccc(C(=N)N(C)C)s2)n(-c2cc3ccccc3cc2F)n1 | 511 nM | – | –
7 | Cc1cc(C(=O)Nc2ccc(C(=N)N(C)CCN(C)C)cc2F)n(-c2cc3ccccc3cc2F)n1 | 48 nM | – | –
8 | CN(C)C(=N)c1ccc(NC(=O)c2cc(C(F)(F)F)nn2-c2ccc3cc(Cl)ccc3c2)c(F)c1 | 1 nM | 1.8 µM | Ki (Coagulation factor X [3]): 0.9 nM
9 | Cc1cc(C(=O)Nc2ccc(C(=N)N3CCCC3)cc2F)n(-c2cc3ccccc3cc2S(C)(=O)=O)n1 | 15 nM | – | –
10 | N=C(c1ccc(NC(=O)c2cc(C(F)(F)F)nn2-c2cc3ccccc3cc2F)c(F)c1)N1CCCCC1 | 11 nM | – | –
11 | Cc1cc(C(=O)Nc2ccc(C(=N)N(C)C)cc2F)n(-c2ccc3cc(Cl)ccc3c2)n1 | 5 nM | 0.83 µM | IC50 [8]: > 10000 nM; bioavailability [4]: 13.8%; IC50 [9]: > 10000 nM; Vd [5]: 82.5 L/kg; IC50 [10]: > 10000 nM; IC50 (Prothrombin): > 10000 nM; half-life [6]: 18 h; Inhibition (Oryctolagus cuniculus [11]): 20%; clearance [7]: 55.9 mL/min/kg; IC50 (Kallikrein-1): > 10000 nM; Ki (Coagulation factor X [3]): 0.7 nM; IC50 (Serine protease 1): > 10000 nM; Inhibition (Oryctolagus cuniculus [12]): 56%
12 | Cc1cc(C(=O)Nc2ccc(C(=N)N3CCCCC3)cc2F)n(-c2ccc3cc(Cl)ccc3c2)n1 | 7 nM | – | –
13 | N=C(c1ccc(NC(=O)c2cc(C(F)(F)F)nn2-c2ccc3cc(Cl)ccc3c2)c(F)c1)N1CCCCC1 | 4 nM | – | –
14 | Cc1cc(C(=O)Nc2ccc(C(=N)N3CCCC3)cc2F)n(-c2ccc3cc(Cl)ccc3c2)n1 | 7 nM | – | –
15 | CN(C)C(=N)c1ccc(NC(=O)c2cc(C(F)(F)F)nn2-c2cc3ccccc3cc2F)c(F)c1 | – | 1.4 µM | IC50 [8]: > 10000 nM; bioavailability [4]: 46.9%; IC50 [9]: > 10000 nM; Vd [5]: 11 L/kg; IC50 [10]: > 10000 nM; Inhibition (Oryctolagus cuniculus [13]): 20%; IC50 (Prothrombin): > 10000 nM; half-life [6]: 8.8 h; clearance [7]: 14.7 mL/min/kg; IC50 (Kallikrein-1): > 10000 nM; Inhibition (Oryctolagus cuniculus [14]): 51%; IC50 (Serine protease 1): > 10000 nM
16 | CN1CCN=C1c1ccc(NC(=O)c2nnnn2-c2cc3ccccc3cc2F)c(F)c1 | 110 nM | – | –
17 | Cc1cc(C(=O)Nc2ccc(C(=N)N3CCCCC3)cc2F)n(-c2cc3ccccc3cc2F)n1 | 8 nM | 1.5 µM | Ki (Coagulation factor X [3]): 5.2 nM
18 | CN1CCN=C1c1ccc(NC(=O)c2cc(C(F)(F)F)nn2-c2ccc3cc(Cl)ccc3c2)c(F)c1 | 2 nM | 4.5 µM | Ki (Coagulation factor X [3]): 1.2 nM
19 | Cc1cc(C(=O)Nc2ccc(C(=N)N(C)C)cc2F)n(-c2cc3ccccc3cc2F)n1 | – | 1 µM | IC50 [8]: > 10000 nM; bioavailability [4]: 24.3%; IC50 [9]: > 10000 nM; Vd (Rattus norvegicus [15]): 49.4 L/kg; IC50 [10]: > 10000 nM; IC50 (Prothrombin): > 10000 nM; T1/2 (Rattus norvegicus [16]): 3.1 h; CL (Rattus norvegicus [17]): 54.3 mL/min/kg; IC50 (Kallikrein-1): > 10000 nM; Ki (Coagulation factor X [3]): 3.9 nM; IC50 (Serine protease 1): > 10000 nM
20 | Cc1cc(C(=O)Nc2ccc(C(=N)N3CCOCC3)cc2F)n(-c2cc3ccccc3cc2F)n1 | 134 nM | – | –
21 | Cc1cc(C(=O)Nc2ccc(C3=NCCN3C)cc2F)n(-c2ccc3cc(Cl)ccc3c2)n1 | 8 nM | 0.91 µM | Ki (Coagulation factor X [3]): 1 nM
22 | Cc1cc(C(=O)Nc2ccc(C(=N)N(C)Cc3ccccc3)cc2F)n(-c2cc3ccccc3cc2F)n1 | 80 nM | – | –
23 | Cc1cc(C(=O)Nc2cc(C(=N)N(C)C)cs2)n(-c2cc3ccccc3cc2F)n1 | 377 nM | – | –
24 | CN(C)C(=N)c1ccc(NC(=O)c2nnnn2-c2cc3ccccc3cc2F)c(F)c1 | 16 nM | – | –
25 | Cc1cc(C(=O)Nc2ccc(C(=N)N3CCCCCC3)cc2F)n(-c2cc3ccccc3cc2F)n1 | 50 nM | – | –
26 | Cc1cc(C(=O)Nc2ccc(C(=N)N3CCC3)cc2F)n(-c2cc3ccccc3cc2F)n1 | 50 nM | – | –
27 | N=C(c1ccc(NC(=O)c2nnnn2-c2ccc3cc(Cl)ccc3c2)c(F)c1)N1CCCCC1 | 8 nM | – | –

Further lines, with some results ahead:

Row | IC50 (Coagulation factor X [1]) | SMILES | Activity [2] | further results
28 | 24 nM | N=C(c1ccc(NC(=O)c2nnnn2-c2cc3ccccc3cc2F)c(F)c1)N1CCCC1 | – | –
29 | 14 nM | Cc1cc(C(=O)Nc2ccc(C3=NCCN3C)cc2F)n(-c2cc3ccccc3cc2S(C)(=O)=O)n1 | 0.78 µM | Ki (Coagulation factor X [3]): 3.9 nM
30 | 18 nM | Cc1cc(C(=O)Nc2ccc(C3=NCCN3C)cc2F)n(-c2cc3ccccc3cc2F)n1 | 1.7 µM | bioavailability [4]: 43.9%; Vd [5]: 7.6 L/kg; half-life [6]: 1.8 h; clearance [7]: 49.3 mL/min/kg; Ki (Coagulation factor X [3]): 8 nM
31 | 2 nM | CN(C)C(=N)c1ccc(NC(=O)c2nnnn2-c2ccc3cc(Cl)ccc3c2)c(F)c1 | 2.5 µM | Ki (Coagulation factor X [3]): 0.7 nM
32 | 114 nM | CNC(=N)c1ccc(NC(=O)c2cc(C)nn2-c2cc3ccccc3cc2F)c(F)c1 | – | –
33 | 15 nM | CN1CCN=C1c1ccc(NC(=O)c2nnnn2-c2ccc3cc(Cl)ccc3c2)c(F)c1 | – | –
34 | 28 nM | Cc1cc(C(=O)Nc2ccc(C(=N)N3CCCCC3)cc2F)n(-c2cc3ccccc3cc2S(C)(=O)=O)n1 | – | –
35 | 479 nM | Cc1cc(C(=O)Nc2cccc(C(=N)N(C)C)c2)n(-c2cc3ccccc3cc2F)n1 | – | –
36 | 22 nM | CCN(C)C(=N)c1ccc(NC(=O)c2cc(C)nn2-c2cc3ccccc3cc2F)c(F)c1 | – | –
37 | 7 nM | N=C(c1ccc(NC(=O)c2nnnn2-c2ccc3cc(Cl)ccc3c2)c(F)c1)N1CCCC1 | – | –
38 | 777 nM | Cc1cc(C(=O)Nc2ccc(C(=N)N)cc2F)n(-c2cc3ccccc3cc2F)n1 | – | –
39 | 10 nM | N=C(c1ccc(NC(=O)c2cc(C(F)(F)F)nn2-c2cc3ccccc3cc2F)c(F)c1)N1CCCC1 | – | –
40 | 110 nM | COCCN(C)C(=N)c1ccc(NC(=O)c2cc(C)nn2-c2cc3ccccc3cc2F)c(F)c1 | – | –
